Data on six compounds can be found in PMC11891452, “Molecular Insights Into β‐Glucuronidase Inhibition by Alhagi Graecorum Flavonoids: A Computational and Experimental Approach” (ChemistryOpen, 2024).

For experiment [1], the target named is T1, β‐glucuronidase (Escherichia coli, UniProt P05804).
T1 construct: purchased Sigma (USA)
Kind of experiment: in vitro β‐glucuronidase inhibition assay with PNPG as substrate. Conditions: pH 7.4, 37 °C, 30 min, mean±SD; for IC50: PNPG substrate; for inhibition at 10 µM: inhibitor 10 μM, PNPG 250 μM, read-out: Inhibition rate 10 μM (%). It counts as biochemical. An excerpt: The substrate p‐Nitrophenyl‐β‐D‐glucuronide (PNPG) and the employed reference drug (−)‐Epigallocatechin gallate (EGCG) were purchased from Sigma‐Aldrich. For this study, β‐glucuronidase, the enzyme of interest, was purchased from Sigma (USA). All other chemicals and solvents used were in the highest purity state or HPLC grade. Five isolated flavonoids from A. graecorum were assigned for their β‐glucuronidase inhibitory efficacy. We prepared the β‐glucuronidase enzyme according to the method reported by Weng et al..[27] A 100 mM stock solution of the substrate (PNPG) was prepared using […] and stored at −20 °C for subsequent utilization. Milli‐Q water was used exclusively for both the PNPG solution and the 0.1 M phosphate buffer solution (pH 7.4).
To estimate the activities of tested flavonoids as inhibitors against β‐glucuronidase, we employed PNPG as the substrate. The assessment procedure followed well‐documented previously reported protocols.[28] In brief, 96‐well plate assays were performed (100 μL/well) to assess β‐glucuronidase inhibition by flavonoids. Each well contained: β‐glucuronidase (2 μg/mL, 10 μL), flavonoid/EGCG inhibitor (10 μM, 10 μL), PNPG substrate (250 μM, 10 μL), and PBS buffer (pH 7.4, 70 μL). Reactions were done in triplicate. Enzyme activity was estimated by tracking PNP formation (OD₄₁₀ nm) after incubation (37 °C, 30 min). A standard curve (0–120 μM PNP) was used to quantify PNP. Relative activity (%) was calculated compared to the blank control. In addition, EGCG was employed as a reference drug. IC50 assays for flavonoid inhibition of β‐glucuronidase were conducted at temperature of 37 °C for 30 minutes. Each reaction contained: β‐glucuronidase (2.0 μg/mL, 10 μL), flavonoid/EGCG (varying concentrations, 0.001–1000 μM, 10 μL), and PBS buffer (pH 7.4, 70 μL). Relative activity (%) was measured as enzyme activity with an inhibitor compared to activity without an inhibitor. A concentration‐response curve was constructed using relative activity data to determine IC50 values.
(§1) To ensure reproducibility, all data are presented as the mean value±standard deviation (SD). This reflects the average value obtained from three independent trials. IC50 values, signifying the inhibitor concentration required for half‐maximal response, were determined from the concentration‐response curves. The IC50 and inhibition constant (Ki) values were estimated using nonlinear regression by the GraphPad Prism 9.0 software.

For experiment [2], the target named is T1, β‐glucuronidase. Description: inhibition kinetics (Michaelis‐Menten, Lineweaver‐Burk and slope plots) of PNPG hydrolysis. Conditions: for mode of inhibition: Lineweaver‐Burk plots, PNPG hydrolysis; for Ki: PNPG 200-1000 μM, from slope plots of Lineweaver‐Burk plots. The format is biochemical.
From the text: To analyze the binding interactions between the tested inhibitors and the target enzyme, we constructed Michaelis‐Menten and Lineweaver‐Burk plots. These plots helped us understand how the inhibitors affect the enzyme′s kinetics. The Lineweaver‐Burk plot′s intersection point was used to identify the inhibition mode (noncompetitive, competitive, uncompetitive, or mixed). Established methods were employed to determine the specific inhibition mode and Ki values.[27, 28]
as §1

T1 sequence (P05804 whole entry): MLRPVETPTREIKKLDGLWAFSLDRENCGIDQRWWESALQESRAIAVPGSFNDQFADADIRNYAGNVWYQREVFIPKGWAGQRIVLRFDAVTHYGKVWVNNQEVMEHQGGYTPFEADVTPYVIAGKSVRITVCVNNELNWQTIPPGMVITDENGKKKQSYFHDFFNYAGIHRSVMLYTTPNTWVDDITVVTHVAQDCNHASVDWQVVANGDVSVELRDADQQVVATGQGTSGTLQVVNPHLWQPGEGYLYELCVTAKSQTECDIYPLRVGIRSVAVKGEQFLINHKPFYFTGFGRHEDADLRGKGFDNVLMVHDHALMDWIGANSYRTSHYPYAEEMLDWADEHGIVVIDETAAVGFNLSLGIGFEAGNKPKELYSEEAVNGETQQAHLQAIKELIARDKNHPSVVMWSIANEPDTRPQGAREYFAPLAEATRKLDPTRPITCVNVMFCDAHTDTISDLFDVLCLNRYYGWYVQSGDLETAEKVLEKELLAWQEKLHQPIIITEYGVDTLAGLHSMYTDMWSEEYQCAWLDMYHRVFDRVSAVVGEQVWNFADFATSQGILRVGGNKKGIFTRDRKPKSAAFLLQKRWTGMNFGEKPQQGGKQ

Take `O=C(O[C@@H]1Cc2c(O)cc(O)cc2O[C@@H]1c1cc(O)c(O)c(O)c1)c1cc(O)c(O)c(O)c1` [EGCG, (−)‐Epigallocatechin gallate, reference compound]: on β‐glucuronidase [1], the IC50 (usually the concentration at which inhibition is half-maximal) was 3.26 ± 0.05 µM and the inhibition (commonly how much of the control response was suppressed) at 10 µM turned out to be 96.14 ± 0.54%. On β‐glucuronidase [2], the mode of inhibition result is “mixed” and the Ki (as a rule, a measure of affinity in units of concentration, obtained from inhibition or displacement) turned out to be 1.42 µM.

Take `COc1cc(-c2cc(=O)c3c(O)cc(O)cc3o2)ccc1O` [chrysoeriol]: on β‐glucuronidase [1], the inhibition at 10 µM is 87.97 ± 0.65%. Also, on β‐glucuronidase [2], the mode of inhibition result is “noncompetitive”.

Turning to `COc1cc(-c2oc3cc(O)cc(O)c3c(=O)c2O)ccc1O` [isorhamnetin], on β‐glucuronidase [1], 26.4 ± 0.72 µM corresponded to half-maximal inhibition (IC50) and the inhibition at 10 µM amounted to 73.9 ± 1.09%.

`O=c1c(O)c(-c2cc(O)c(O)c(O)c2)oc2cc(O)cc(O)c12` [myricetin]: at β‐glucuronidase [1], the IC50 came to 3.95 ± 0.04 µM and the inhibition at 10 µM is 92.59 ± 0.56%. Also, at β‐glucuronidase [2], the mode of inhibition result is “noncompetitive” and the Ki was 3.07 µM.

For `O=C1C[C@@H](c2ccc(O)cc2)Oc2cc(O)cc(O)c21` [naringenin], at β‐glucuronidase [1], the IC50 was 52.3 ± 2.44 µM and the inhibition at 10 µM worked out at 56 ± 2.5%.

As to `COc1ccc(-c2oc3cc(O)cc(O)c3c(=O)c2O)cc1O` [tamarixetin], at β‐glucuronidase [1], half-maximal inhibition (IC50) was put at 19.9 ± 1.23 µM and the inhibition at 10 µM was 80 ± 1.71%.
